Experimental data from patent US6664419B1, “Method and device for purifying substances by means of crystallization” (Stockhausen GmbH & Co. KG, priority 1999, dated 2003).
Where two headings read alike, the source gives them in different places.

Assay: Solubility limit of impurity in molten acrylic acid
Type: physicochemical
Source text: In addition to other impurities, acrylic acid pre-purified by distillation may contain maleic acid, its anhydride, and phenothiazine which precipitate from the molten material at concentrations of more than 4% (maleic acid) and 1.5% (phenothiazine), respectively. The respective amounts of solid precipitating during a crystallization process as a result of surpassing the solubility limit can be inferred from the following Examples (Table 1 and 2).
The solubility of maleic acid in acrylic acid is about 4%. The residue (13.2 kg) contains 20.4% or 2.7 kg of maleic acid, 2.4 kg of which precipitates as a solid as a result of surpassing the solubility limit.

Row | SMILES | solubility in acrylic acid (in acrylic acid melt / mother liquor, precipitates above this concentration) | solubility in acrylic acid
1 | c1ccc2c(c1)Nc1ccccc1S2 [PTZ, phenothiazine] | about 1.5% | –
2 | O=C(O)/C=C\C(=O)O [maleic acid] | – | about 4%
